In assay [1] the target is Protein E6 (Human papillomavirus 16) (UniProt P03126). The assay can be described thus: Inhibition of GST-tagged Human papillomavirus 16 protein E6 interaction with His-tagged human caspase 8 expressed in Escherichia coli at 20 nM to 20 uM after 1 hr incubation followed by overnight incubation by Alpha screening technique.
The target of assay [2] is Caspase-8 (Homo sapiens) (UniProt Q14790). The experiment in a line: Inhibition of GST-tagged human caspase 8 interaction with His-tagged human caspase 8 expressed in Escherichia coli at 0.1 to 10 uM after 1 hr followed by overnight incubation by bead-based binding assay.
Assay [3] addresses Protein E6 (Human papillomavirus 16, UniProt P03126). The experiment in a line: (§1) Inhibition of GST-tagged Human papillomavirus 16 protein E6 interaction with His-tagged human caspase 8 expressed in Escherichia coli after 1 hr incubation followed by overnight incubation by Alpha screening technique.
For assay [4], the target named is Protein E6 (Human papillomavirus 16) (UniProt P03126). Described as §1.
The target is the same in assay [5]. The experiment in a line: Inhibition of GST-tagged Human papillomavirus 16 protein E6 interaction with His-tagged human FADD expressed in Escherichia coli after 1 hr incubation followed by overnight incubation by Alpha screening technique.

Active and inactive are the calls of the source. The rule behind the calls is not given here. Where only a bound is given, the exact number is not on record here.

The text below walks through data of ChEMBL document CHEMBL2010646, “Small molecule inhibitors of the HPV16-E6 interaction with caspase 8” (Bioorg Med Chem Lett, 2012).

Sequence of Protein E6 (Human papillomavirus 16) (P03126 whole entry): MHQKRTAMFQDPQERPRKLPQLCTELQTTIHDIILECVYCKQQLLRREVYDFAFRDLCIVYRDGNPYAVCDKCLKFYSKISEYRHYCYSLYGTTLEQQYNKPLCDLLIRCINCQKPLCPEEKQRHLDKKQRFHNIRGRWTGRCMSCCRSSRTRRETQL
Sequence of Protein E6 (P03126 whole entry): as above
Sequence of Caspase-8 (Homo sapiens) (Q14790 217-374 limits assumed): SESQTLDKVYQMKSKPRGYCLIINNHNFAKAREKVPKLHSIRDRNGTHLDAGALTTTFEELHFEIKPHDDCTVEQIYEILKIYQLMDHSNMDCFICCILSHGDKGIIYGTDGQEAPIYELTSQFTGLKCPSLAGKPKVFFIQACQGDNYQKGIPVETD
Sequence of Caspase-8 (Homo sapiens) (Q14790 385-479 limits assumed): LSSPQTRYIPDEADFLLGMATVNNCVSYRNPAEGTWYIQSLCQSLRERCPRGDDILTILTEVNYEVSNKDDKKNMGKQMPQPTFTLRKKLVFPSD

On to `O=c1c(O)c(-c2ccccc2)oc2cc(O)cc(O)c12`, for which the inhibition result in assay [1] was “Active”.
In the case of `O=c1c(O)c(-c2ccccc2)oc2ccc(O)cc12`, the inhibition entry in assay [1] and in assay [2] was “inactive” in each case.
With `O=c1c(O)c(-c2ccccc2)oc2ccccc12`, the inhibition result in assay [1] is “inactive”.
A word on the IC50: it is the midpoint of a concentration-inhibition curve. A lower IC50 goes with greater potency in that assay. For the molecule `O=c1c(O)c(-c2ccc(O)cc2O)oc2cc(O)cc(O)c12` [MORIN], the half-inhibitory concentration (IC50) in assay [3] turned out to be 4 µM. Besides, the inhibition entry in assay [2] is “inactive”.
Take `O=c1cc(-c2ccccc2)oc2ccccc12`: in assay [1], the inhibition entry was “inactive”.
The same measure, in the same setting: the value for `O=C(O)Cc1cc(Cl)c2oc(-c3ccccc3)c(O)c(=O)c2c1` was “inactive”; that for `O=c1c(O)c(-c2ccccc2O)oc2cc(O)cc(O)c12` was “inactive”; that for `COc1ccc2c(=O)c(O)c(-c3ccccc3)oc2c1` was “inactive”.
Still for that read-out and setting: the value for `O=c1c(O)c(-c2ccccc2)oc2cc(O)ccc12` was “inactive”.
In assay [3], `O=c1c(O)c(-c2cc(O)c(O)c(O)c2)oc2cc(O)cc(O)c12` [MYRICETIN] showed an IC50 of 0.85 µM. In addition, in assay [2], the inhibition result was “inactive”.
As for `O=c1c(O)c(-c2ccc(O)c(O)c2)oc2cc(O)ccc12`, the inhibition entry in assay [1] is “inactive”.
In the case of `COc1cc(-c2oc3cc(O)ccc3c(=O)c2O)ccc1O`, the inhibition result in assay [1] is “inactive”.
The same measure, in the same setting: under `O=C(O)Cc1cc(Cl)c2oc(-c3ccc(Cl)cc3)c(O)c(=O)c2c1` stands “inactive”.
Molecule `O=c1c(O)c(-c2ccc(O)c(O)c2)oc2cc(O)cc(O)c12` [QUERCETIN] registered an IC50 in assay [3] above 20 µM.
As for `CC(C)c1ccc(-c2oc3c(Cl)cc(CC(=O)O)cc3c(=O)c2O)cc1`, the inhibition entry in assay [1] is “inactive”.
Same read-out and setting: under `COc1cc(O)c2c(=O)c(O)c(-c3ccc(O)c(O)c3)oc2c1` stands “inactive”; under `COc1cc(-c2oc3cc(O)cc(O)c3c(=O)c2O)ccc1O`, “inactive”.
As for `O=c1c(O)c(-c2ccc(O)cc2)oc2cc(O)cc(O)c12` [KAEMPFEROL], the inhibition entry in assay [4] and in assay [5] was “Dose-dependent effect” in each case. This molecule also yielded an IC50 in assay [3] above 20 µM.
`O=c1cc(-c2ccc(O)cc2)oc2cc(O)cc(O)c12`: the inhibition entry in assay [1] was “inactive”.
